Assay results: patent EP0430991B1, “REAGENT FOR USE IN LD-1 ASSAY” (BOEHRINGER MANNHEIM CORPORATION, priority 1988, dated 1990)
Where a name gives a salt, the structure may show the parent alone. Read-outs that look alike come from different tables or passages of the source.

Legend:
[1] = molecular target: T1, lactate dehydrogenase isoenzyme LD-2, H(3)M (Homo sapiens, UniProt P00338+P07195); assay: LD isoenzyme inactivation, automated analyzer rate assay (lactate/NAD, 340 nm); format: biochemical; details: for LD-1 ISOENZYME REAGENT (Recovery): Lithium L-Lactate 90 mM, pH 9.6
T1 construct: purchased Aalto, Escondido, CA
Procedure: (§1) A. Materials: • 1. Reagent I. contains Lithium L-Lactate (90mM), guanadine thiocyanate (240 mM), Tris buffer (112.6 mM) at pH 9.5. • 2. Reagent II. contains Na(2)SO(4) (40 mM) and NAD (53.76 mM). Reaction mixture is a combination of 2.0 ml of R-1, 0.5 ml of R-2 which has a final reaction pH of 8.9 • 3. LD isoenzymes. Pure LD-1, LD-2, LD-3 and LD-5 individual isoenzymes were obtained from Aalto of Escondido, CA. Patient serum samples were obtained from a local hospital. B. Procedures Using Automated Analyzer Tests were performed on a Boehringer Mannheim/Hitachi 705 analyzer. The analyzer was given the following parameters: Assay Code: Rate - 20-26 (equivalent to 84.62 seconds to 198.70 seconds) Sample Volume: 12 µl R1 Volume: 400 µl R2 Volume: 100 µl Wavelength 1: 376 nm Wavelength 2: 340 nm Temperature: 37 degrees C. Factor: -10470 C. Manual Procedure Instrument: Spectrophotometer Temperature: 37 degrees C. Wavelength: 340 nm 1. Zero spectrophotometer with distilled or deionized water (DI HOH) 2. Pipette the following reagents in a cuvette:
(§2) 3. Mix and equilibrate sample to 37 degrees C. 4. Pipette and add 0.5 ml of R2 into sample test tube. Mix and measure optical density change at 340 nm for about 6 minutes. Calculate A/min. from 2 to 4 minutes. This is A/min for the sample. 5. Repeat steps 2 to 4 for the blank using 0.060 ml DI HOH as sample. This is A/min. for the blank. 6. Calculate for U/L (U/L = units of LDH activity per liter) U/L = (A/min Sample - A/min blank) x 1000 x 2.56 6.22 x light path x 0.06 [formula] D. Protocol for the Electrophoretic Analysis • 1. About 630 to 1,000 µl of individual LD-1, LD-2, LD-3, LD-4, LD-5 and abnormal patient serum samples were used in the electrophoretic analysis. • 2. 12 µl sample was added to […] R1 and incubated for 4 minutes at 37 degrees C to inhibit LD-2 to LD-5 to achieve an inhibited sample. • 3. Another 12 µl sample was added to 400 ul of Tris buffer (112.6 mM, pH at 8.9-9.0) and incubated for 4 minutes at 37 degrees C to achieve a control sample. • 4. Both the inhibited and control samples were applied to the Beckman Paragon Gel and the electrophoresis was run according to the Beckman procedure specified for the gel using a Beckman Paragon Electrophoresis instrument from Beckman Instrument. E. Method for Comparison Sixty-eight patient samples with LD-1 activity from 30 to 800 U/L were tested to compare the selectivity of R1 with the immunochemical separation method Roche's Isomune LD-1 reagent was employed for the immunochemical separation. F. Experimental Results 1. LD isoenzymes were tested using the Automated Analyzer procedure described above. […] LD-1 isoenzyme was tested at several concentrations. […]
(§3) A. Materials • 1. Reagent I: contains Lithium L-Lactate (90 mM), guanidine HCl (240 mM), sodium thiocyanate (240 mM) Tris buffer (119 mM) and Na(2)Co(3) (12.5 mM) at pH 9.6. • 2. Reagent II: contains Na(2)SO(4) (40 mM) and NAD (53.76 mM). Reaction mixture is a combination of 2.0 ml of R-1, 0.5 ml of R-2 which has final reaction pH at 8.9. • 3. LD isoenzymes: Same as described in Example 1. B. Procedures using Automated Analyzer Same as described in Example 1. C. Manual Procedure Same as described in Example 1. […]
(§4) A. Materials • 1. Reagent I: contains Lithium L-Lactate (90 mM), guanidine-HCL Na(2)Co(3) (12.5mM), Tris buffer (119 mM) at pH 9.6. • 2. Reagent II: contains Na(2)SO(4) (40 mM) and NAD (53.76 Mm). Reaction mixture is a combination of 2.0 ml of R-1, 0.5 ml of R-2 which has final reaction reaction pH at 8.9. • 3. LD isoenzymes: pure LD-1, LD-2, LD-3 and LD-5 individual isoenzymes are obtained from Aalto, Escondido, CA. Patient serum samples are obtained from a local hospital. B. Procedures using Automated Analyzer Same as described in Example 1. C. Manual Procedure Same as described in Example 1. […] Table
(§5) A. Materials • 1. Reagent I: contains Lithium L-Lactate (90 mM), NaSCN (240 mM) Na(2)Co(3) (12.5 mM), Tris buffer (119 mM) at pH 9.6. • 2.

[2] = molecular target: lactate dehydrogenase isoenzyme LD-5, M(4) (Homo sapiens, UniProt P00338); assay: as above; format: biochemical; details: for LD-1 ISOENZYME REAGENT (Recovery): Lithium L-Lactate 90 mM, pH 9.6
Procedure: as §1, §2, §3, §4, §5

[3] = molecular target: T2, lactate dehydrogenase isoenzyme LD-3, H(2)M(2) (Homo sapiens, UniProt P00338+P07195); assay: as above; format: biochemical; details: Lithium L-Lactate 90 mM, pH 9.6
T2 construct: purchased Aalto, Escondido, CA
Procedure: as §1, §2, §3, §4, §5

[4] = system: LD-2,3,4,5 (sample contains LD(2), LD(3), LD(4), and LD(5) isoenzymes with 43% of LD(4)); assay: as above; format: biochemical, human; details: Lithium L-Lactate 90 mM, pH 9.6
Procedure: A. Materials: • 1. […] LD isoenzymes. […] Patient serum samples were obtained from a local hospital. […] Factor: -10470 C. Manual Procedure Instrument: Spectrophotometer Temperature: 37 degrees C. Wavelength: 340 nm 1. […] Pipette the following reagents in a cuvette:
3. Mix and equilibrate sample to 37 degrees C. 4. […] Calculate A/min. from 2 to 4 minutes. This is A/min for the sample. 5. […] This is A/min. for the blank. 6. […] F. Experimental Results 1. […] LD-1 isoenzyme was tested at several concentrations. […]
A. Materials • 1. […] LD isoenzymes: Same as described in Example 1. […] C. Manual Procedure Same as described in Example 1. […]
A. Materials • 1. […] Patient serum samples are obtained from a local hospital. […] C. Manual Procedure Same as described in Example 1. […] Table

[5] = molecular target: lactate dehydrogenase isoenzyme LD-1, H(4) (Homo sapiens, UniProt P07195); assay: biochemical; details: for LD-1 ISOENZYME REAGENT (Recovery): Lithium L-Lactate 90 mM, pH 9.6; for activity at 240000 µM: R1: guanadine thiocyanate 240 mM, Lithium L-Lactate 90mM, Tris 112.6 mM, pH 9.5, 37 degrees C
Procedure: as §1, §2, §3, §4, §5

[6] = molecular target: lactate dehydrogenase isoenzyme LD-4, HM(3) (Homo sapiens, UniProt P00338+P07195); assay: LD isoenzyme inactivation, automated analyzer rate assay (lactate/NAD, 340 nm); format: biochemical; details: R1: guanadine thiocyanate 240 mM, Lithium L-Lactate 90mM, Tris 112.6 mM, pH 9.5; 37 degrees C; read-out: Activity After R1 Treatment (% of Total LDH Reagent)
Procedure: as §1
3. Mix and equilibrate sample to 37 degrees C. 4. Pipette and add 0.5 ml of R2 into sample test tube. Mix and measure optical density change at 340 nm for about 6 minutes. Calculate A/min. from 2 to 4 minutes. This is A/min for the sample. 5. Repeat steps 2 to 4 for the blank using 0.060 ml DI HOH as sample. This is A/min. for the blank. 6. […]

[7] = Reagent I: guanidine-HCL (concentration not given), no thiocyanate
[8] = Reagent I: NaSCN 240 mM, no guanidine
[9] = R1: guanadine thiocyanate 240 mM, Lithium L-Lactate 90mM, Tris 112.6 mM, pH 9.5, 37 degrees C, read-out: Activity After R1 Treatment (% of Total LDH Reagent)

## N=C(N)N [GUANIDINE HCL, guanidine HCl]
[1]; [7]
  LD-1 ISOENZYME REAGENT (Recovery): 826 (106 %)
[2]; [7]
  LD-1 ISOENZYME REAGENT (Recovery): 159 ( 9.50%)
[3]; [7]
  LD-1 ISOENZYME REAGENT (Recovery): 1323 (102 %)
[4]; [7]
  LD-1 ISOENZYME REAGENT (Recovery): 1102 ( 81.2 %)
[5]; LD-1 sample 1X, Reagent I: guanidine-HCL (concentration not given), no thiocyanate
  LD-1 ISOENZYME REAGENT (Recovery): 202 (110 %)
[5]; LD-1 sample 2X, Reagent I: guanidine-HCL (concentration not given), no thiocyanate
  LD-1 ISOENZYME REAGENT (Recovery): 394 (107 %)
[5]; LD-1 sample 4X, Reagent I: guanidine-HCL (concentration not given), no thiocyanate
  LD-1 ISOENZYME REAGENT (Recovery): 759 (107 %)
[5]; LD-1 sample 6X, Reagent I: guanidine-HCL (concentration not given), no thiocyanate
  LD-1 ISOENZYME REAGENT (Recovery): 1123 (106 %)

## sodium thiocyanate [NaSCN]
[1]; [8]
  LD-1 ISOENZYME REAGENT (Recovery): 905 (116 %)
[2]; [8]
  LD-1 ISOENZYME REAGENT (Recovery): 44 ( 2.6%)
[3]; [8]
  LD-1 ISOENZYME REAGENT (Recovery): 1093 ( 85 %)
[4]; [8]
  LD-1 ISOENZYME REAGENT (Recovery): 725 ( 53 %)
[5]; LD-1 sample 1X, Reagent I: NaSCN 240 mM, no guanidine
  LD-1 ISOENZYME REAGENT (Recovery): 252 (138 %)
[5]; LD-1 sample 2X, Reagent I: NaSCN 240 mM, no guanidine
  LD-1 ISOENZYME REAGENT (Recovery): 499 (136 %)
[5]; LD-1 sample 4X, Reagent I: NaSCN 240 mM, no guanidine
  LD-1 ISOENZYME REAGENT (Recovery): 964 (134 %)
[5]; LD-1 sample 6X, Reagent I: NaSCN 240 mM, no guanidine
  LD-1 ISOENZYME REAGENT (Recovery): 1421 (134 %)

## N=C(N)N [guanadine thiocyanate]
[6]
  activity at 240000 µM: 0%
[1]; [9]
  activity at 240000 µM: 1.1%
[2]; [9]
  activity at 240000 µM: 0%
[5]; pH 9.5, read-out: Activity After R1 Treatment (% of Total LDH Reagent), LD-1 sample 1x
  activity at 240000 µM: 98%
[5]; pH 9.5, read-out: Activity After R1 Treatment (% of Total LDH Reagent), LD-1 sample 2x
  activity at 240000 µM: 100%
[5]; pH 9.5, read-out: Activity After R1 Treatment (% of Total LDH Reagent), LD-1 sample 4x
  activity at 240000 µM: 100%
[5]; pH 9.5, read-out: Activity After R1 Treatment (% of Total LDH Reagent), LD-1 sample 6x
  activity at 240000 µM: 102%
